In ChEMBL document CHEMBL5724696, “Autophagy assay results for EUbOPEN Chemogenomics Library” (2024):

Assays:
Assay type in all cases: functional, Homo sapiens
[1] = test system: U2OS; assay: (§1) Here: values are normalized to the negative (DMSO; defined as 0% autophagy induction) and positive (250nM Torin1; mTOR inhibitor; defined as maximal inducer of autophagy = 100%) control compounds and represented as % of autophagy induction. […] The impact of autophagy induction on cells is complex and depends on the affected target. As such, the magnitude of a phenotype may not be equally mirrored in the %-value of autophagy induction and vice versa. The dynamics of the induction may indicate the mode of activation: e.g. activation via phosphorylation or a signaling cascade may occur fast, while activation via transcription factors may take considerably longer. […] Of note, treatment concentrations may be sub-optimal for specific compounds, leading to false negative annotations.; conditions: Culturing Media DMEM, 1 % Penicillin/Streptomycin, 10% Fetal bovin serum Add-On: No, Screening Media Control DMEM, Screening Media Samples DMEM
[2] = test system: U2OS; assay: as §1; conditions: Culturing Media DMEM, 1 % Penicillin/Streptomycin, 10% Fetal bovin serum Add-On: No, Screening Media Control DMEM, Screening Media Samples DMEM; remark: listed apart in the source
[3] = test system: TERT-RPE1; assay: as §1; conditions: Culturing Media DMEM/F12 (1:1), 1 % Penicillin/Streptomycin, 10% Fetal bovin serum Add-On: No, Screening Media Control DMEM/F12 (1:1), Screening Media Samples DMEM/F12 (1:1)
[4] = Compound Concentration 0.5 uM, Timepoint 12 hours
[5] = Compound Concentration 0.5 uM, Timepoint 24 hours
[6] = Compound Concentration 0.5 uM, Timepoint 36 hours
[7] = Compound Concentration 0.5 uM, Timepoint 60 hours
[8] = Compound Concentration 2 uM, Timepoint 12 hours
[9] = Compound Concentration 2 uM, Timepoint 24 hours
[10] = Compound Concentration 2 uM, Timepoint 36 hours
[11] = Compound Concentration 2 uM, Timepoint 60 hours
[12] = Compound Concentration 10 uM, Timepoint 12 hours
[13] = Compound Concentration 10 uM, Timepoint 24 hours
[14] = Compound Concentration 10 uM, Timepoint 36 hours
[15] = Compound Concentration 10 uM, Timepoint 60 hours

SMILES | autophagy induction [1, 4] [%] | autophagy induction [1, 5] [%] | autophagy induction [1, 6] [%] | autophagy induction [1, 7] [%] | autophagy induction [1, 8] [%] | autophagy induction [1, 9] [%] | autophagy induction [1, 10] [%] | autophagy induction [1, 11] [%] | autophagy induction [1, 12] [%] | autophagy induction [1, 13] [%] | autophagy induction [1, 14] [%] | autophagy induction [1, 15] [%] | autophagy induction [2, 4] [%] | autophagy induction [2, 5] [%] | autophagy induction [2, 6] [%] | autophagy induction [2, 7] [%] | autophagy induction [2, 8] [%] | autophagy induction [2, 9] [%] | autophagy induction [2, 10] [%] | autophagy induction [2, 11] [%] | also measured
Cc1c(C2=CCN(C(=O)N(C)C(C)C)CC2)nnn1-c1cccnc1F | 23.3711 | 12.0378 | 26.6789 | 23.6658 | -5.386 | -5.642 | -9.747 | -4.534 | -2.977 | 0.8858 | -1.59 | 4.327 | 2.838 | 0.05909 | -0.5317 | -0.9964 | -1.633 | -1.565 | -0.7182 | -1.565 | autophagy induction [2, 12]: 1.202%; autophagy induction [2, 13]: 0.8484%; autophagy induction [2, 14]: 0.458%; autophagy induction [2, 15]: -1.904%; autophagy induction [3, 4]: -7.351%; autophagy induction [3, 5]: -10.2554%; autophagy induction [3, 6]: -12.7414%; autophagy induction [3, 7]: -13.7381%; autophagy induction [3, 8]: -4.799%; autophagy induction [3, 9]: -6.124%; autophagy induction [3, 10]: -8.583%; autophagy induction [3, 11]: -9.595%; autophagy induction [3, 12]: -1.3221%; autophagy induction [3, 13]: -2.795%; autophagy induction [3, 14]: -0.6234%; autophagy induction [3, 15]: 3.817%
Cc1nc(C(=O)N2CCC[C@H]2Cc2nnc(-c3ccccc3)o2)c(-c2ccccc2F)s1 | 13.4134 | 8.147 | 0.9843 | 3.676 | 5.837 | 5.052 | 3.424 | -6.267 | 0.7146 | 3.711 | -0.07108 | -6.907 | 4.15 | -0.2081 | -2.227 | -2.102 | 0.7749 | -1.115 | -1.752 | -2.832 | autophagy induction [2, 12]: 4.1851%; autophagy induction [2, 13]: 1.702%; autophagy induction [2, 14]: -1.044%; autophagy induction [2, 15]: -3.102%; autophagy induction [3, 4]: -3.536%; autophagy induction [3, 5]: -6.3015%; autophagy induction [3, 6]: -4.185%; autophagy induction [3, 7]: -7.252%; autophagy induction [3, 8]: -4.803%; autophagy induction [3, 9]: -6.585%; autophagy induction [3, 10]: -5.999%; autophagy induction [3, 11]: -9.333%; autophagy induction [3, 12]: 0.2716%; autophagy induction [3, 13]: 0.5174%; autophagy induction [3, 14]: 2.2318%; autophagy induction [3, 15]: 3.905%
COC1CCN(c2cccc(-c3cc(NC(C)=O)nc(-n4nc(C)cc4C)n3)n2)CC1 | 34.4556 | 27.7724 | 24.8838 | 23.4921 | -5.934 | -0.6278 | -1.762 | -0.9306 | -4.754 | 3.79 | 9.047 | 19.3391 | 2.5303 | -0.8923 | -0.9403 | 0.4833 | 5.065 | 2.721 | -0.07864 | -0.6053 | autophagy induction [2, 12]: 7.172%; autophagy induction [2, 13]: -0.05151%; autophagy induction [2, 14]: 0.1867%; autophagy induction [2, 15]: -2.376%; autophagy induction [3, 4]: -7.33%; autophagy induction [3, 5]: -8.964%; autophagy induction [3, 6]: -12.5665%; autophagy induction [3, 7]: -12.2397%; autophagy induction [3, 8]: -1.032%; autophagy induction [3, 9]: 0.9672%; autophagy induction [3, 10]: 2.277%; autophagy induction [3, 11]: 7.2174%; autophagy induction [3, 12]: 3.426%; autophagy induction [3, 13]: 13.112%; autophagy induction [3, 14]: 27.8595%; autophagy induction [3, 15]: 52.8636%
Cc1c(P(=S)(c2ccccc2)c2ccccc2)n2ccccc2[n+]1C/C=C/c1ccccc1.[Br-] | -3.655 | 0.9546 | -1.282 | 2.215 | -8.9 | -2.047 | 1.308 | 3.722 | 47.8904 | 55.2067 | 55.7211 | 73.829 | -4.037 | -2.741 | -2.914 | -1.509 | -1.2597 | -1.1621 | -2.341 | -2.536 | autophagy induction [2, 12]: -27.5654%; autophagy induction [2, 13]: -9.802%; autophagy induction [2, 14]: -1.3311%; autophagy induction [2, 15]: 3.649%; autophagy induction [3, 4]: -3.105%; autophagy induction [3, 5]: -8.592%; autophagy induction [3, 6]: -12.0302%; autophagy induction [3, 7]: -17.0508%; autophagy induction [3, 8]: 2.878%; autophagy induction [3, 9]: -0.5859%; autophagy induction [3, 10]: 1.195%; autophagy induction [3, 11]: -1.818%; autophagy induction [3, 12]: 24.7841%; autophagy induction [3, 13]: 51.8106%; autophagy induction [3, 14]: 73.7567%; autophagy induction [3, 15]: 96.4076%
